What was measured:
BTK recombinant protein = BTK recombinant protein (Homo sapiens (Human), UniProt Q06187); assay: Determination of biochemical BTK (Z'-LYTE kinase assay); conditions: 32 μM ATP
Description: BTK recombinant protein: Invitrogen, Cat #PV3363;
Z′-LYTE® kinase test kit-tyrosine 1 peptide: Invitrogen, Cat #PV3190;
Z′-LYTE® biochemical assay employs a fluorescence resonance energy transfer (FRET)-based, coupled-enzyme format and is based on the differential sensitivity of phosphorylated and non-phosphorylated peptides to proteolytic cleavage. Both ends of the short peptide substrate are labeled with two fluorescent groups to form a FRET paired combination. In the primary reaction (the Kinase Reaction), the kinase transfers the γ-phosphate of ATP to a single […] residue on the short peptide substrate. In the secondary reaction (the development reaction), the non-phosphorylated short peptides were recognized and cleaved by a site-specific protease (the development reagent). Phosphorylated short peptides can resist such cleavage. Cleavage of short peptides can disrupt the donor (such as coumarin) and receptor fluorophores (fluorescein) on the short peptides, while the phosphorylated short peptides can maintain FRET. The calculation method of the ratio is as follows, and the ratio of the respective emission signals generated by the donor fluorophores emitted (after excitation at 400 nm) to the receptors is calculated. Emission signal ratio=emitted light by coumarin (445 nm)/emitted light by fluorescein (520 nm). If the FRET short peptide is phosphorylated (such as no kinase inhibitor), the emitted light ratio will remain in a lower level. If the FRET short peptide is non-phosphorylated (such as kinase inhibitor), the emitted light ratio will be in a higher level. In this way, the inhibitory effects of different compound inhibitors on BTK kinase activity would be distinguished.
The experiment was carried out according to the instructions of the Z′-LYTE® kinase test kit-tyrosine 1 peptide. Reagent preparation: 1.33× kinase buffer: 5× kinase buffer was diluted with water to 1.33× kinase buffer; an enzyme solution: the kinase was dissolved in 1.33× kinase buffer with the final working concentration being 3.32 nM; a short peptide solution: a short peptide stock solution (1 mM dissolved in DMSO) was dissolved in 1.33× kinase buffer with the final working concentration being 2 μM; Z′-LYTE Tyr01 phosphorylated short peptide solution, 0.6 μl of stock solution (1 mM dissolved in DMSO) was dissolved in 149.4 μl of 1.33× kinase buffer; an ATP solution: an ATP stock solution (10 mM aqueous solution) was dissolved in 1.33× kinase buffer with the final working concentration being 32 μM; a color-developing solution: color-developing solution B was dissolved in color-developing buffer with the final working concentration being 1× color-developing solution; 4× compound preparation: the compound was diluted in 3-fold gradient concentration to finally obtain 4% DMSO aqueous solution containing different concentrations of the compound, with the final working concentration being 3000, 1000, 333.33, 111.11, 37.04, 12.35, 4.12, 1.37 nM, 8 concentration points in total.
Specific steps of the experiment: In the experiment, there were three control groups, each with 8 replicate wells, which were C1 100% inhibition group (no ATP), C2 0% inhibition group (with ATP), and C3 100% phosphorylation group, respectively. 2.5 μl of serially diluted compound was added to each well of a 384-well plate, with double replicate wells, and 4% DMSO solution was added to wells C1, C2, and C3. After that, except for wells C3, 2.5 μl of BTK enzyme solution was added to each remaining well, which was left to stand at 4° C. for 30 minutes. After that, except for wells C3, 2.5 μl of short peptide solution was added to each well, and 5 μl of phosphorylated short peptide solution was added to each of wells C3. 2.5 μl of 1.33× kinase buffer was added to each of wells C1 and C3, and 2.5 μl of ATP solution was added to each of the remaining wells. The wells were centrifuged transiently, and the plate was shaken at 1000 rpm for 30 seconds to perform transient centrifuge. […]

[1] = tested on: idiopathic thrombocytopenic purpura induced by anti-mouse CD41 antibodies; assay: Idiopathic thrombocytopenic purpura induced by anti-CD41 antibody in mice, level of platelets; type: in vivo; conditions: 40 mg/kg oral single dose
Method: Male C57BL/6 mice were purchased from Shanghai Lingchang Biotechnology Co., Ltd. (certificate number 20180003011079, initial body weight of 18-20 grams), and were randomly grouped according to Table 4, with 8 mice in each group. […] When modeling, each mouse was intraperitoneally injected with 200 μL of PBS solution containing […] of anti-mouse CD41 antibodies (BD, Cat #: 553487, Lot #: 7026765).
Eight hours and twenty-four hours after modeling, the whole blood was collected and placed in a centrifuge tube coated with 10% citrate-phosphate-dextrose-adenine (CPDA), and the level of platelets (PLT) in the whole blood was measured by an XT-2000i (SYSMEX) automatic blood analyzer (Shanghai Laboratory Animal Research Centre Sino-British SIPPR/B & K Lab Animal Ltd).
The average level of platelets in peripheral blood was analyzed with Graphpad statistical software by one way ANOVA followed by Fisher LSD multiple comparison test, and the p value was calculated, wherein *p<0.05 indicated a statistically significant difference compared with the vehicle control group, **p<0.01 indicated a statistically extremely significant difference compared with the vehicle control group, and ##p<0.01 indicated a statistically extremely significant difference compared with the normal group.
RR %=(PLTtreatment−PLTmodel)/(PLTnaive−PLTmodel)×100%.

Sequence of BTK recombinant protein (Q06187 whole entry): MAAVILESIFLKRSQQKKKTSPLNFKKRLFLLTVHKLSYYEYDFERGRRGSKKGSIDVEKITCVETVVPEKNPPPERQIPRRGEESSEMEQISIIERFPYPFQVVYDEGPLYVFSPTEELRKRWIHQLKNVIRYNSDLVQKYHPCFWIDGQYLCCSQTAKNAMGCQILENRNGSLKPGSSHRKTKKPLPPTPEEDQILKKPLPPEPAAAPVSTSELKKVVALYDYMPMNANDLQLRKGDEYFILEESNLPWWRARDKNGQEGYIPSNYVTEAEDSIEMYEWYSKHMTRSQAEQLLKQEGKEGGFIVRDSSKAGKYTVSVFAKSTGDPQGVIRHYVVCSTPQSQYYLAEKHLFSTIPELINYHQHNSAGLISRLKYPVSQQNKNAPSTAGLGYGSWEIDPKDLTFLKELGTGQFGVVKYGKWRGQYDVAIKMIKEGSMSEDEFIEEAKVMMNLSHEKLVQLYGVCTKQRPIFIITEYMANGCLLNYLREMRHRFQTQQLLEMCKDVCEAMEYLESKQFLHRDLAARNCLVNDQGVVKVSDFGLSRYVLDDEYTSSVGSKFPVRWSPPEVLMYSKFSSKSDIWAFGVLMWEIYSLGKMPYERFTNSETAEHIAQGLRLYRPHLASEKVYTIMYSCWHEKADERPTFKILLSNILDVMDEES

| SMILES | IC50 (BTK recombinant protein) | recovery rate of platelets ([1]; 8 hours after modeling) | recovery rate of platelets ([1]; 24 hours after modeling) |
| --- | --- | --- | --- |
| C[C@H]1CN(C2COC2)C[C@H](C)N1c1ccc(Nc2cc(-c3ccnc(-n4ccn5c6c(c(F)c5c4=O)CCCC6)c3CO)cn(C)c2=O)nc1 [Compound 3] | 3 nM |  |  |
| C[C@H]1CN(C)C[C@H](C)N1c1ccc(Nc2cc(-c3ccnc(-n4ccn5c6c(cc5c4=O)CC(C)(C)C6)c3CO)cn(C)c2=O)nc1 [Compound 6, 2-(3′-(hydroxymethyl)-1-methyl-6-oxo-5-((5-((2S,6S)-2,4,6-trimethylpiperazin-1-yl)pyridin-2-yl)amino)-1,6-dihydro-[3,4′-bipyridin]-2′-yl)-7,7-dimethyl-7,8-dihydro-2H-cyclopenta[4,5]pyrrolo[1,2-a]pyrazin-1(6H)-one] | 7 nM |  |  |
| CC(C)(/C=C(\C#N)C(=O)N1CCC[C@@H](n2nc(-c3ccc(Oc4ccccc4)cc3F)c3c(N)ncnc32)C1)N1CCN(C2COC2)CC1 [PRN1008, rilzabrutinib, reference compound] |  | 40% | 16% |
